Assay results taken from publication PMC6017357, “In Vitro Inhibitory Effects of Synthetic Cannabinoid EAM-2201 on Cytochrome P450 and UDP-Glucuronosyltransferase Enzyme Activities in Human Liver Microsomes” (Molecules : A Journal of Synthetic Chemistry and Natural …, 2018).

How the values were obtained:
[1] = target: CYP2C19 (Homo sapiens, UniProt P33261); experiment: CYP2C19-mediated [S]-mephenytoin 4′-hydroxylation in human liver microsomes (IC50 and time-dependent inhibition); type: in vitro ADME; set-up: from tissue; host or cells: ultrapooled human liver microsomes
CYP2C19, sequence (P33261 whole entry): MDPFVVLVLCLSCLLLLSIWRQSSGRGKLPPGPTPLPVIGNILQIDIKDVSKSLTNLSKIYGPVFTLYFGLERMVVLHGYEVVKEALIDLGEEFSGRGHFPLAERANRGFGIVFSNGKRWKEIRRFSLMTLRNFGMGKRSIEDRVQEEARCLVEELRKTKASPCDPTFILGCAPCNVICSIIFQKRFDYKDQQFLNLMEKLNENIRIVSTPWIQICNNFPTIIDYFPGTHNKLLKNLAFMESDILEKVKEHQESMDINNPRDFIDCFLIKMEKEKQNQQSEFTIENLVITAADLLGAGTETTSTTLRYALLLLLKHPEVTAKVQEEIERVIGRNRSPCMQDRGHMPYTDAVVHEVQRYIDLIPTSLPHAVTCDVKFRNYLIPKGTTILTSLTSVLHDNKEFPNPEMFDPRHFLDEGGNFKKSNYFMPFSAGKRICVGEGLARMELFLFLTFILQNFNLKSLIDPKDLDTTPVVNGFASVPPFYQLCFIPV
Description: (§1) The inhibitory potential (IC50 values) of EAM-2201 on CYP1A2, CYP2A6, CYP2C8, CYP2C9, CYP2C19, CYP2D6 and CYP3A4 were evaluated using ultrapooled human liver microsomes and a cocktail of seven CYP substrates followed by LC-tandem mass spectrometry (LC-MS/MS) as previously described. Each incubation mixture was prepared in a total volume of 100 µL as follows: pooled human liver microsomes (5.2 pmol CYP), 1.0 mM NADPH, 10 mM magnesium chloride, 50 mM potassium phosphate buffer (pH 7.4), various concentrations of EAM-2201 in DMSO (final concentrations of 0.1–50 µM, 0.5% DMSO) and a cocktail of seven CYP probe substrates in 50% acetonitrile (0.5% acetonitrile), including 50 µM phenacetin, 2.5 µM coumarin, 2.0 µM amodiaquine, 10 µM diclofenac, 100 µM [S]-mephenytoin, 5 µM bufuralol and 2.5 µM midazolam in 50% acetonitrile. After a 3-min preincubation at 37 °C, the reactions were initiated by adding NADPH and incubation proceeded for 15 min at 37 °C in a shaking water bath. The reactions were stopped by adding 100 µL of ice-cold methanol containing internal standards (^13C2,^15N-acetaminophen for acetaminophen and N-desethylamodiaquine; d9-1′-hydroxybufuralol for 4′-hydroxydiclofenac, 7-hydroxycoumarin, 4′-hydroxymephenytoin, 1′-hydroxybufuralol and 1′-hydroxy-midazolam). The incubation mixtures were centrifuged at 13,000× g for 4 min at 4 °C and 50 µL of each supernatant was diluted in 50 µL of water. Aliquots (5 µL) of the diluted supernatants were analyzed using LC-MS/MS. All assays were performed in triplicate and the mean values were used in calculations. […] Each reaction was initiated by adding the seven-CYP probe substrate cocktail described above.
(§2) The time-dependent inhibitory effects of EAM-2201 on CYP2C8, CYP2C9, CYP2C19 and CYP3A4 activities in ultrapooled human liver microsomes were evaluated using time- and concentration-dependent inhibition assays. Ultrapooled human liver microsomes (26.0 pmol CYP) were pre-incubated with various concentrations of EAM-2201 in DMSO (0.5% DMSO) in 50 mM potassium phosphate buffer (pH 7.4) in the presence of NADPH for predetermined time periods: 5–15 min for CYP2C8 activity, 5–20 min for CYP2C9 activity and 15–40 min for CYP2C19 and CYP3A4 activities. […] Aliquots (5 µL) of the diluted supernatants were analyzed using LC-MS/MS.
(§3) The metabolites formed from CYP substrates were simultaneously quantified using our previously described LC-MS/MS method. […]

[2] = target: T1, CYP2C8 (Homo sapiens, UniProt P10632); experiment: CYP2C8-catalyzed amodiaquine N-deethylation in human liver microsomes (IC50 and time-dependent inhibition); type: in vitro ADME; set-up: from tissue; host or cells: ultrapooled human liver microsomes
T1 sequence (P10632 1-490): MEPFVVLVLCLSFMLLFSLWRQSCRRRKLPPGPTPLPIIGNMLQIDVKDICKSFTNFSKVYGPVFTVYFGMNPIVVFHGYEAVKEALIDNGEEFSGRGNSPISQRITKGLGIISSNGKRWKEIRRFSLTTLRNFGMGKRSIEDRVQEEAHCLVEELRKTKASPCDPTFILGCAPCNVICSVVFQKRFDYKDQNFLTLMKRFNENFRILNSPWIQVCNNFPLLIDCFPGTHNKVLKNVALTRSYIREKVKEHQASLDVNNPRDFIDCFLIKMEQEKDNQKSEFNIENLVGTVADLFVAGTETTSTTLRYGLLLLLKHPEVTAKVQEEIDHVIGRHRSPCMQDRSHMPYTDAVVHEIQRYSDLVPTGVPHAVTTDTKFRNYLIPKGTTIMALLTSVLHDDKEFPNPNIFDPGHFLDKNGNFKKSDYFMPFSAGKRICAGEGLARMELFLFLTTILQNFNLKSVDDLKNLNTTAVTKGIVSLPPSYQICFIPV
Description: as §1, §2, §3

[3] = up to 50 µM, without 30-min preincubation, human liver microsomes

CCc1ccc(C(=O)c2cn(CCCCCF)c3ccccc23)c2ccccc12 [EAM-2201, (4-ethyl-1-naphthalenyl)[1-(5-fluoropentyl)-1H-indol-3-yl]-methanone]
IC50 [1]: 10.9 µM
inactivation efficiency (kinact/Ki), CYP2C19 ([1]; human liver microsomes): 115 M⁻¹ s⁻¹
kinact ([1]; human, ultrapooled human liver microsomes, pH 7.4, probe [S]-mephenytoin (100 µM), 4′-hydroxylation, read-out: kinact, time-dependent inhibition of CYP2C19 [S]-mephenytoin 4′-hydroxylase (converted)): 0.00044 s⁻¹
inhibition of CYP2C19-mediated [S]-mephenytoin 4′-hydroxylation [1, 3]: negligibly inhibited
IC50 [2]: 3 µM
inactivation efficiency (kinact/Ki), CYP2C8 ([2]; human liver microsomes): 1953 M⁻¹ s⁻¹
kinact ([2]; human, ultrapooled human liver microsomes, pH 7.4, probe amodiaquine (2 µM), N-deethylation, read-out: kinact, time-dependent inhibition of CYP2C8 amodiaquine N-deethylase (converted)): 0.00105 s⁻¹
inhibition of CYP2C8-catalyzed amodiaquine N-deethylation [2, 3]: negligibly inhibited
